Source: ChEMBL document CHEMBL5244243, “Novel strategies targeting bromodomain-containing protein 4 (BRD4) for cancer drug discovery” (Eur J Med Chem, 2020)

Tests used:
[1] = target: T1, Bromodomain-containing protein 4 (Homo sapiens, UniProt O60885); test: Inhibition of BRD4 (unknown origin) BD1 domain
Histone deacetylase = test: Inhibition of HDAC (unknown origin); format: protein assay, Homo sapiens
MV4-11 = test: Antitumor activity against human MV4-11 cells xenografted in mouse assessed as TGI at 1 mg/kg, po measured after 7 days relative to control; format: functional; details: MV4-11, 168 h, time 7 day, read-out: TGI
[2] = target: T1, Bromodomain-containing protein 4; test: Inhibition of BRD4 (unknown origin) BD1 domain incubated for 18 hrs
[3] = target: T1, Bromodomain-containing protein 4; test: Induction of BRD4 (unknown origin) degradation at 100 nM relative to control
[4] = target: T1, Bromodomain-containing protein 4; test: Inhibition of human full length BRD4
[5] = target: T1, Bromodomain-containing protein 4; test: Induction of BRD4 degradation in human MV4-11 cells at 100 nM measured after 18 hrs relative to control; format: cell-based

Cc1sc2c(c1C)C(c1ccc(Cl)cc1)=N[C@@H](CC(=O)Nc1ccc(C(=O)NO)cc1)c1nnc(C)n1-2
IC50 [1]: 11 nM | IC50 (Histone deacetylase): 21 nM

COc1nnc2ccc(N3CCC(c4ccc(OCCN5CCN(C)C(=O)[C@H]5C)cc4)CC3)nn12 [AZD-5153]
inhibition in vivo at 1 mg/kg (MV4-11): 72% | IC50 [2]: 1.6 nM

Cc1ncsc1-c1ccc(CNC(=O)[C@@H]2C[C@@H](O)CN2C(=O)C(NC(=O)COCCOCCOCCNC(=O)C[C@@H]2N=C(c3ccc(Cl)cc3)c3c(sc(C)c3C)-n3c(C)nnc32)C(C)(C)C)cc1 (some centres not stated)
Activity [3]: 90%

Cc1noc(C)c1-c1ccc2c(c1)c(Cc1ccc(F)cc1)cn2CCCCCCC(=O)NO
IC50 [4]: 5 nM

Cc1sc2c(c1C)C(c1ccc(Cl)cc1)=N[C@@H](CC(=O)NCCCCNC(=O)COc1cccc3c1C(=O)N(C1CCC(=O)NC1=O)C3=O)c1nnc(C)n1-2 (some centres not stated)
Activity [5]: 87%
